This is an account of results in patent US10935540B2, “GDF-15 as a haematological toxicity biomarker” (Novartis AG, priority 2015, dated 2021).

Data set [1] has as its system patients with solid tumors. Briefly: Maximum change of platelet and neutrophil count versus GDF-15 fold change in patients with solid tumors receiving compound of formula I. In kind it is in vivo, human. To be noted: regimen 1A (q3w) 12.5-350 mg or regimen 1B 120 mg. On the procedure:
Maximum change of platelet count (FIG. 7) and neutrophil count (FIG. 8) and the GDF-15 values were determined for patients with solid tumors receiving compound of formula I, i.e. (S)-5-(5-Chloro-1-methyl-2-oxo-1,2-dihydro-pyridin-3-yl)-6-(4-chloro-phenyl)-2-(2,4-dimethoxy-pyrimidin-5-yl)-1-isopropyl-5,6-dihydro-1H-pyrrolo[3,4-d]imidazol-4-one, on the first day of a three week cycle (herein also referred to as regimen 1A or q3w) in doses of 12.5 mg (A), 25 mg (B), 50 mg (C), 100 mg (D), 200 mg (E), 250 mg (F), 350 mg(G) or on the first and eighth day of a 4 week cycle (herein also referred to as regimen 1B) in a dose of 120 mg (I). The left graphs show the maximum platelet count change vs. GDF-15 fold change, the GDF-15 being measured on day 1 of the first cycle (C1D1). The right graphs show the maximum platelet count change vs. GDF-15 fold change.
The platelet/neutrophil count was determined before receipt of first dose (baseline) and on day 1, 7 and 15 of the first and second cycle for regimen 1A (A-G) or on day 1, 8, 14, 22 of the first and second cycle for regimen 1B (I) and the maximum platelet change value in comparison to the baseline was selected. The “Change of platelet/neutrophile counts” value is calculated as post-baseline value minus baseline value and given in number of platelets/neutrophils per microliter of blood. […]

The subject of a further data set is patients. Briefly: Clinical analysis of serum GDF-15 (ELISA) versus platelet counts in patients treated with Compound A. In kind it is in vivo, human. To be noted: 21 patients, continuous three times weekly oral administration; preliminary analysis (FIG. 3). On the procedure: Patients were treated with (5)-1-(4-Chloro-phenyl)-7-isopropoxy-6-methoxy-2-(4-{methyl-[4-(4-methyl-3-oxo-piperazin-1-yl)-trans-cyclohexylmethyl]-amino}-phenyl)-1,4-dihydro-2H-isoquinolin-3-one (Compound A). Dose range was from 10 to 500 mg three times a week (3QW) with continuous or 2 week on 1 week off dosing regimen. Serum samples were collected from each subject at pre-dose and from 0.5 to 6 h post-dose on the first treatment day.
The serum level of GDF-15 expression was measured using enzyme-linked immunosorbent assay (ELISA; R&D Systems kit DGD150).
Clinical data (including platelet counts) were collected from all patients during the course of the treatment period.
Maximum observation period was 448 days on available platelet data.
A preliminary data analysis of (S)-1-(4-Chloro-phenyl)-7-isopropoxy-6-methoxy-2-(4-{methyl-[4-(4-methyl-3-oxo-piperazin-1-yl)-trans-cyclohexylmethyl]-amino}-phenyl)-1,4-dihydro-2H-isoquinolin-3-one effect on GDF-15 and platelet counts for 21 patients treated on a continuous three times weekly oral administration of (S)-1-(4-Chloro-phenyl)-7-isopropoxy-6-methoxy-2-(4-{methyl-[4-(4-methyl-3-oxo-piperazin-1-yl)-trans-cyclohexylmethyl]-amino}-phenyl)-1,4-dihydro-2H-isoquinolin-3-one was conducted. The conducted data analysis is represented in a plot on FIG. 3. In this plot, each point represents an individual patient. […]

In data set [2] the test system is patients with liposarcomas. To be noted: cited from earlier work.
For a further data set, the system named is thrombopoesis. The note with it: previous studies; cited from earlier work.
The subject of another data set is animal model. The note with it: cited from earlier work.

Molecules are shown by their SMILES.

Regarding `COc1ncc(-c2nc3c(n2C(C)C)[C@H](c2ccc(Cl)cc2)N(c2cc(Cl)cn(C)c2=O)C3=O)c(OC)n1` [compound of formula I, (S)-5-(5-Chloro-1-methyl-2-oxo-1,2-dihydro-pyridin-3-yl)-6-(4-chloro-phenyl)-2-(2,4-dimethoxy-pyrimidin-5-yl)-1-isopropyl-5,6-dihydro-1H-pyrrolo[3,4-d]imidazol-4-one], the “correlation of GDF-15 increase with platelet count change” value in data set [1] (seen already for GDF-15 C1D1 24 h post-dose (FIG. 7)) is given as “correlates with a decrease”. In data set [1] (seen already for GDF-15 C1D1 24 h post-dose (FIG. 8)), the “correlation of GDF-15 increase with neutrophil count change” value is given as “correlates with a decrease”.
For the molecule `COc1cc2c(cc1OC(C)C)[C@H](c1ccc(Cl)cc1)N(c1ccc(N(C)C[C@H]3CC[C@H](N4CCN(C)C(=O)C4)CC3)cc1)C(=O)C2` [Compound A, (S)-1-(4-Chloro-phenyl)-7-isopropoxy-6-methoxy-2-(4-{methyl-[4-(4-methyl-3-oxo-piperazin-1-yl)-trans-cyclohexylmethyl]-amino}-phenyl)-1,4-dihydro-2H-isoquinolin-3-one], the “cycle 1 day 1 GDF-15 increase from baseline associated with a higher occurrence of platelet counts dropping below 150 G/L (grade 1 thrombocytopenia CTCAE V4)” value in the data set on patients is recorded as “more than 25%”.
Consider `CCOc1cc(C(C)(C)C)ccc1C1=N[C@@](C)(c2ccc(Cl)cc2)[C@@](C)(c2ccc(Cl)cc2)N1C(=O)N1CCN(CCCS(C)(=O)=O)CC1` [RG7112], for which the major dose-limiting toxicity result in data set [2] (RG7112 administration) is listed as “thrombocytopenia”. Also, the “patients with induced thrombocytopenia” value in data set [2] (single-agent RG-7112, patients with liposarcomas) is recorded as 40 % of patients. Also, the effect on thrombopoesis entry in the data set on thrombopoesis is on record as “impairs thrombopoesis”. Also, in the data set with animal model, the “time course of drug-induced thrombocytopenia” value was “occurred rather late during the treatment period and persisted after drug discontinuation”.
